We go through one compound from PMC6722883 (FEBS Open Bio, 2019).

The data set can be described thus: physchem. To be noted: buffer or solvent, pH 7.2.

Take `CC[C@H](C)[C@@H]1NC(=O)[C@@H]2CCCN2C(=O)[C@H](CO)NC(=O)[C@H](CCSC)NC(=O)[C@H](C)NC(=O)[C@H](CO)NC(=O)[C@@H]2CSSC[C@H](NC(=O)CN)C(=O)N[C@@H](CSSC[C@@H](C(N)=O)NC1=O)C(=O)N[C@@H](CO)C(=O)N[C@@H](Cc1cnc[nH]1)C(=O)N1CCC[C@H]1C(=O)N[C@@H](C(C)C)C(=O)N2` [TxID, α‐Conotoxin TxID]: the amount remaining – broadly, the share of the starting amount still present when the sample was taken – at 4 h was approximately 50%.
